From publication PMC8800111 (The Journal of Biological Chemistry, 2021)

Columns and labels:
Type in all cases: cell-based
[1] = biological target: proteins of U3A human fibrosarcoma cells (4462 proteins detected) (Homo sapiens, UniProt Q8TA86); conditions: protein RP9, U3A cells
[2] = biological target: proteins of U3A human fibrosarcoma cells (4462 proteins detected) (Homo sapiens, UniProt Q96K76); conditions: protein USP47; U3A cells
[3] = biological target: proteins of U3A human fibrosarcoma cells (4462 proteins detected) (Homo sapiens, UniProt Q9NWT1); conditions: protein PAK1IP1; U3A cells
[4] = biological target: proteins of U3A human fibrosarcoma cells (4462 proteins detected) (Homo sapiens, UniProt Q9BVW5); conditions: protein TIPIN, U3A cells
[5] = biological target: proteins of U3A human fibrosarcoma cells (4462 proteins detected) (Homo sapiens, UniProt O00422); conditions: protein SAP18; soluble abundance after heat, U3A cells
[6] = biological target: proteins of U3A human fibrosarcoma cells (4462 proteins detected) (Homo sapiens, UniProt P50213); conditions: protein IDH3A; U3A cells
[7] = biological target: proteins of U3A human fibrosarcoma cells (4462 proteins detected) (Homo sapiens, UniProt Q1ED39); conditions: protein KNOP1; U3A cells
[8] = biological target: proteins of U3A human fibrosarcoma cells (4462 proteins detected) (Homo sapiens, UniProt O95983); conditions: protein MBD3; U3A cells
[9] = biological target: proteins of U3A human fibrosarcoma cells (4462 proteins detected) (Homo sapiens, UniProt P56282); conditions: protein POLE2; U3A cells
[10] = biological target: proteins of U3A human fibrosarcoma cells (4462 proteins detected) (Homo sapiens, UniProt Q6ZQQ6); conditions: protein WDR87; U3A, 10 μM, 2 h
[11] = biological target: proteins of U3A human fibrosarcoma cells (4462 proteins detected) (Homo sapiens, UniProt Q9BZJ0); conditions: protein CRNKL1; U3A cells
[12] = biological target: proteins of U3A human fibrosarcoma cells (4462 proteins detected) (Homo sapiens, UniProt Q14790); conditions: protein CASP8; U3A, 10 μM, 2 h
[13] = biological target: proteins of U3A human fibrosarcoma cells (4462 proteins detected) (Homo sapiens, UniProt P22059); conditions: protein OSBP; soluble abundance after heat, U3A cells
[14] = biological target: proteins of U3A human fibrosarcoma cells (4462 proteins detected) (Homo sapiens, UniProt Q96SN8); conditions: protein CDK5RAP2; U3A, 10 μM, 2 h
[15] = biological target: proteins of U3A human fibrosarcoma cells (4462 proteins detected) (Homo sapiens, UniProt Q96EY8); conditions: protein MMAB; U3A cells
[16] = biological target: proteins of U3A human fibrosarcoma cells (4462 proteins detected) (Homo sapiens, UniProt O75396); conditions: protein SEC22B; U3A cells
[17] = biological target: proteins of U3A human fibrosarcoma cells (4462 proteins detected) (Homo sapiens, UniProt Q8TAA5); conditions: protein GRPEL2; U3A cells
[18] = biological target: proteins of U3A human fibrosarcoma cells (4462 proteins detected) (Homo sapiens, UniProt Q9Y5P4); conditions: protein COL4A3BP; soluble abundance after heat, U3A cells
[19] = biological target: proteins of U3A human fibrosarcoma cells (4462 proteins detected) (Homo sapiens, UniProt Q9H1D9); conditions: protein POLR3F; U3A cells
[20] = biological target: proteins of U3A human fibrosarcoma cells (4462 proteins detected) (Homo sapiens, UniProt Q9HAS0); conditions: protein C17orf75; U3A cells
[21] = biological target: proteins of U3A human fibrosarcoma cells (4462 proteins detected) (Homo sapiens, UniProt Q86WQ0); conditions: protein NR2C2AP, U3A cells
[22] = biological target: proteins of U3A human fibrosarcoma cells (4462 proteins detected) (Homo sapiens, UniProt Q9NU23); conditions: protein LYRM2; U3A, 10 μM, 2 h
[23] = biological target: proteins of U3A human fibrosarcoma cells (4462 proteins detected) (Homo sapiens, UniProt Q9UFW8); conditions: protein CGGBP1; soluble abundance after heat, U3A cells
[24] = biological target: proteins of U3A human fibrosarcoma cells (4462 proteins detected) (Homo sapiens, UniProt Q9Y2H0); conditions: protein DLGAP4, U3A cells
[25] = biological target: proteins of U3A human fibrosarcoma cells (4462 proteins detected) (Homo sapiens, UniProt Q99470); conditions: protein SDF2, U3A cells
[26] = biological target: proteins of U3A human fibrosarcoma cells (4462 proteins detected) (Homo sapiens, UniProt Q32P44); conditions: protein EML3, U3A cells
[27] = biological target: proteins of U3A human fibrosarcoma cells (4462 proteins detected) (Homo sapiens, UniProt P23528); conditions: protein CFL1, U3A cells
[28] = biological target: proteins of U3A human fibrosarcoma cells (4462 proteins detected) (Homo sapiens, UniProt Q96T37); conditions: protein RBM15; U3A cells
[29] = biological target: proteins of U3A human fibrosarcoma cells (4462 proteins detected) (Homo sapiens, UniProt Q13492); conditions: protein PICALM; U3A cells
[30] = biological target: proteins of U3A human fibrosarcoma cells (4462 proteins detected) (Homo sapiens, UniProt O76021); conditions: protein RSL1D1; soluble abundance after heat, U3A cells

proteins of U3A human fibrosarcoma cells (4462 proteins detected) (Homo sapiens, UniProt Q13492), sequence (Q13492 whole entry): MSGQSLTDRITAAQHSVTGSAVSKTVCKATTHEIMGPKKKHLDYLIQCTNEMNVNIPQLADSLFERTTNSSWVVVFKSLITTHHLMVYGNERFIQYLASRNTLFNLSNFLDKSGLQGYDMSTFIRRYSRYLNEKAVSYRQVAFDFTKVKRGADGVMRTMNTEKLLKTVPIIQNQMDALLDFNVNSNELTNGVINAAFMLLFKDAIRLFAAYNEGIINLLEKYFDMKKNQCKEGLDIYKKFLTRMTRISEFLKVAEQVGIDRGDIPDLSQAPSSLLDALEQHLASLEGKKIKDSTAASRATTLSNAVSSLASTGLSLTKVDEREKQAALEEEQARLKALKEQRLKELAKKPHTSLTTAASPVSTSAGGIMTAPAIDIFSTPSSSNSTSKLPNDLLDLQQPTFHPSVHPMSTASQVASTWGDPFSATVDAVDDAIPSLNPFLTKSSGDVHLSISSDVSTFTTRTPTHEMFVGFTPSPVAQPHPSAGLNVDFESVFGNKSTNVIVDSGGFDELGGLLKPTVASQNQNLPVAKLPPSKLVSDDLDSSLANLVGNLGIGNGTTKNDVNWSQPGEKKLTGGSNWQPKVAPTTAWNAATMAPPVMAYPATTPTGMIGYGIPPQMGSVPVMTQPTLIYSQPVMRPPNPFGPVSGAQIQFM
proteins of U3A human fibrosarcoma cells (4462 proteins detected) (Homo sapiens, UniProt Q14790), sequence (Q14790 217-479): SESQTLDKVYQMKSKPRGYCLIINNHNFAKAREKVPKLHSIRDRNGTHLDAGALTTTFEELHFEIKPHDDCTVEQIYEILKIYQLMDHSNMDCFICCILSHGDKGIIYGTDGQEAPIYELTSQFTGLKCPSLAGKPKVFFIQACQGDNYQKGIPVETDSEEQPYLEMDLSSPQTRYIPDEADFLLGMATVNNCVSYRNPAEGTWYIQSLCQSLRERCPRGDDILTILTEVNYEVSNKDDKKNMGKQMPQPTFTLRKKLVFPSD
proteins of U3A human fibrosarcoma cells (4462 proteins detected) (Homo sapiens, UniProt Q9BZJ0), sequence (Q9BZJ0 whole entry): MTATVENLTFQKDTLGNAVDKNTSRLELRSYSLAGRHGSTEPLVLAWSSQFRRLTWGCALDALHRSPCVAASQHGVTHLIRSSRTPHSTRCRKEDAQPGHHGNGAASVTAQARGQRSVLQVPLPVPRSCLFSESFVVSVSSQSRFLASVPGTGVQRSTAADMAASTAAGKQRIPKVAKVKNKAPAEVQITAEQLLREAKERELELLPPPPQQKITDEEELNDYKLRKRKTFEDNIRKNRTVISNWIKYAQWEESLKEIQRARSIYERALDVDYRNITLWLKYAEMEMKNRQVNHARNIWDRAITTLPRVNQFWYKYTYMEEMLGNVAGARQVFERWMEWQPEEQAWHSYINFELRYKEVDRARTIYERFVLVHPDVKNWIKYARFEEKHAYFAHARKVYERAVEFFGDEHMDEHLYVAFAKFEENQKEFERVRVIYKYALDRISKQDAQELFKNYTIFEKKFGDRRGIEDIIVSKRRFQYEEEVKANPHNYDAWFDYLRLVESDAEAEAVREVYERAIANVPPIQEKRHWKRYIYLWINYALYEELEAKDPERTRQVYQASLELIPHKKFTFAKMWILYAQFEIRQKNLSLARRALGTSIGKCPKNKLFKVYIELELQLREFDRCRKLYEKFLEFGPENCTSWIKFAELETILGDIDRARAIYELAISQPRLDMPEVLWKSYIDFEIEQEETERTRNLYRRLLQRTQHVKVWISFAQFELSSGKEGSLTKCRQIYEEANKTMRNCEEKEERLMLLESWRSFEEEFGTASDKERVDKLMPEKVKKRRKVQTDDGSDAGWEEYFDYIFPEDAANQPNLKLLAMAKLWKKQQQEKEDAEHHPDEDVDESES
proteins of U3A human fibrosarcoma cells (4462 proteins detected) (Homo sapiens, UniProt Q96EY8), sequence (Q96EY8 33-250): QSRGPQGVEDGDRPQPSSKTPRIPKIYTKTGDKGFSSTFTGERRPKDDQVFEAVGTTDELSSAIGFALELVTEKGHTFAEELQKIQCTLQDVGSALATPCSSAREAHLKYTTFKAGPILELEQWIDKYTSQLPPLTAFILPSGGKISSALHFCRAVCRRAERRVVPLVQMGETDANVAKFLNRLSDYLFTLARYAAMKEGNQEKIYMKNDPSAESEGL
proteins of U3A human fibrosarcoma cells (4462 proteins detected) (Homo sapiens, UniProt P56282), sequence (P56282 whole entry): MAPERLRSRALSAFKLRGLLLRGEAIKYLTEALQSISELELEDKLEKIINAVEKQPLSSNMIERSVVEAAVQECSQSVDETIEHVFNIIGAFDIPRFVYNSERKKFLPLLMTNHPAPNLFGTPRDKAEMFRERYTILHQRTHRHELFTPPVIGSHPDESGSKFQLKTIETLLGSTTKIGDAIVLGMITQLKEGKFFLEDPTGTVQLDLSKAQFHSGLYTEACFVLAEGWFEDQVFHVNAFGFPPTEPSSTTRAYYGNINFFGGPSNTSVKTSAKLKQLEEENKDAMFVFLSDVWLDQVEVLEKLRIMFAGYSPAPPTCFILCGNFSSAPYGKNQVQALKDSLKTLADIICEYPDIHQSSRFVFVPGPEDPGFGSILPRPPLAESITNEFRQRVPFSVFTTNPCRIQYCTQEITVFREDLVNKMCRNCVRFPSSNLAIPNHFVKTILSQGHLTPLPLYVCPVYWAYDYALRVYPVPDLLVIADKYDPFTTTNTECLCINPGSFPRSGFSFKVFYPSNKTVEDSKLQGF
proteins of U3A human fibrosarcoma cells (4462 proteins detected) (Homo sapiens, UniProt Q8TA86), sequence (Q8TA86 whole entry): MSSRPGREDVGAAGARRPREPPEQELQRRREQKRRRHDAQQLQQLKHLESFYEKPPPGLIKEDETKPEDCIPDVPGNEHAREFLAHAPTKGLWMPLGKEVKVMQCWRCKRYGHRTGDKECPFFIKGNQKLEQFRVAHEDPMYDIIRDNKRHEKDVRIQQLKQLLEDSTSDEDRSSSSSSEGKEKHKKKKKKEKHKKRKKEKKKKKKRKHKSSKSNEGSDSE
proteins of U3A human fibrosarcoma cells (4462 proteins detected) (Homo sapiens, UniProt P50213), sequence (P50213 28-366): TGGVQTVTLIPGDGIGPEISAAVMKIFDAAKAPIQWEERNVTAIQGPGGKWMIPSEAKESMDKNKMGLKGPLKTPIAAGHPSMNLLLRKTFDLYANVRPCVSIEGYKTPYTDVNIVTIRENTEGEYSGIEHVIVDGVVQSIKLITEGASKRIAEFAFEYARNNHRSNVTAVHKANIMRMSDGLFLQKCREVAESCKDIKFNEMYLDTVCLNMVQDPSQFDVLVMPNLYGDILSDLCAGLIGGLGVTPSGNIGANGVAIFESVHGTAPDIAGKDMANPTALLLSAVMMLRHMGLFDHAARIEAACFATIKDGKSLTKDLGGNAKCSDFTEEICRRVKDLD
proteins of U3A human fibrosarcoma cells (4462 proteins detected) (Homo sapiens, UniProt Q9Y5P4), sequence (Q9Y5P4 whole entry): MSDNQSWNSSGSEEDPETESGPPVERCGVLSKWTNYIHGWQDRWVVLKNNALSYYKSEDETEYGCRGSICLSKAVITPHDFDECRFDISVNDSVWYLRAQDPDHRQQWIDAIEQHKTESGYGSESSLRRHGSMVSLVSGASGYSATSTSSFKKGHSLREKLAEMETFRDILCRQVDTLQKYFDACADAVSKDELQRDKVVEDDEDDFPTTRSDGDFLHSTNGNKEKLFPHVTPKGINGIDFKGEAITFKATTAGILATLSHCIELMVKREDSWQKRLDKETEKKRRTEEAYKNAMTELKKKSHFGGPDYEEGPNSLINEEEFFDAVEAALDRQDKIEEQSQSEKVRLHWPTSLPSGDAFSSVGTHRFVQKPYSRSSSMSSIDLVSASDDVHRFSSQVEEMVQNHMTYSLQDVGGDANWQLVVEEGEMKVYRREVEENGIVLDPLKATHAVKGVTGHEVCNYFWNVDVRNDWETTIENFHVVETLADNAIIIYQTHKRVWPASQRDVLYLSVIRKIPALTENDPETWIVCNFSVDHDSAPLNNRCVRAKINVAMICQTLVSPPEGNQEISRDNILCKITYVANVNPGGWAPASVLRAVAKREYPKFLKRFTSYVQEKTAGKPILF
proteins of U3A human fibrosarcoma cells (4462 proteins detected) (Homo sapiens, UniProt Q9BVW5), sequence (Q9BVW5 whole entry): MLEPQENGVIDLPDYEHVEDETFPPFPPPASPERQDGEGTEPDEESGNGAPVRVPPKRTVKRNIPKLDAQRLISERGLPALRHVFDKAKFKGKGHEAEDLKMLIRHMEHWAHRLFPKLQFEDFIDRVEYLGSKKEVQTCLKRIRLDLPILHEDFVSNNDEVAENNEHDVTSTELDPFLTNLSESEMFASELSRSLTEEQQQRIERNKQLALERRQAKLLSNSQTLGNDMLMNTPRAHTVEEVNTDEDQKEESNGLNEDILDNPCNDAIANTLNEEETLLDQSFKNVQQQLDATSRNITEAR
proteins of U3A human fibrosarcoma cells (4462 proteins detected) (Homo sapiens, UniProt P23528), sequence (P23528 whole entry): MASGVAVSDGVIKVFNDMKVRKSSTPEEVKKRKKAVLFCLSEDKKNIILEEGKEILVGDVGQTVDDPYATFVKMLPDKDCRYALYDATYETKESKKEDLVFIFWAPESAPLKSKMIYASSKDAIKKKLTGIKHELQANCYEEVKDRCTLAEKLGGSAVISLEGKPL
proteins of U3A human fibrosarcoma cells (4462 proteins detected) (Homo sapiens, UniProt Q99470), sequence (Q99470 19-211): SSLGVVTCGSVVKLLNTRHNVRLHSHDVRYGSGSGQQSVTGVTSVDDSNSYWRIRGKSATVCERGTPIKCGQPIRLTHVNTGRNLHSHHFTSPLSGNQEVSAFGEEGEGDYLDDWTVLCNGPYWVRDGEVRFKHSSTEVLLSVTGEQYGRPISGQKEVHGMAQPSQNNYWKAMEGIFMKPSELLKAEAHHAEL
proteins of U3A human fibrosarcoma cells (4462 proteins detected) (Homo sapiens, UniProt Q8TAA5), sequence (Q8TAA5 33-225): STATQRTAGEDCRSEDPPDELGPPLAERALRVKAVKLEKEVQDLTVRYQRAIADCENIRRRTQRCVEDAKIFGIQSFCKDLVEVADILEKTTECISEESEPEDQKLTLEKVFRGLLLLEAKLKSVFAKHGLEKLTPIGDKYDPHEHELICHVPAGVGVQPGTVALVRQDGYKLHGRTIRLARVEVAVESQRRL
proteins of U3A human fibrosarcoma cells (4462 proteins detected) (Homo sapiens, UniProt O00422), sequence (O00422 whole entry): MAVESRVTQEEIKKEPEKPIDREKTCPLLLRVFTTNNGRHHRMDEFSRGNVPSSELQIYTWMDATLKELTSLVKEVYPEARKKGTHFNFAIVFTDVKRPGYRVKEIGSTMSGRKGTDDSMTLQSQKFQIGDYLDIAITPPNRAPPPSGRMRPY
proteins of U3A human fibrosarcoma cells (4462 proteins detected) (Homo sapiens, UniProt Q9NU23), sequence (Q9NU23 20-88): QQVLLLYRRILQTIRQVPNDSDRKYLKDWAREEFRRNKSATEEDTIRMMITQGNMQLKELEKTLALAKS

With `CCc1nc(N)nc(N)c1-c1ccc(Cl)cc1` [pyrimethamine] the “Log2 (PYR/DMSO)” value [1] was -0.05, the “Log2 (PYR/DMSO)” value [2] was 0.19 and the “Log2 (PYR/DMSO)” value [3] was 0.18. The “Log2 (PYR/DMSO)” value [4] was -0.03, the “Log2 (PYR/DMSO)” value [5] was 0.14 and the “Log2 (PYR/DMSO)” value [6] was 0.16. The “Log2 (PYR/DMSO)” value [7] was 0.17, the “Log2 (PYR/DMSO)” value [8] was 0.16 and the “Log2 (PYR/DMSO)” value [9] was 0.19. The “Log2 (PYR/DMSO), WDR87” value [10] was -0.16, the “Log2 (PYR/DMSO)” value [11] was 0.16 and the “Log2 (PYR/DMSO), CASP8” value [12] was 0.34. The “Log2 (PYR/DMSO)” value [13] was 0.14, the “Log2 (PYR/DMSO), CDK5RAP2” value [14] was -0.21 and the “Log2 (PYR/DMSO)” value [15] was 0.19. For the same compound, the “Log2 (PYR/DMSO)” value [16] was 0.21, the “Log2 (PYR/DMSO)” value [17] was 0.18 and the “Log2 (PYR/DMSO)” value [18] was 0.13. The “Log2 (PYR/DMSO)” value [19] was 0.17, the “Log2 (PYR/DMSO)” value [20] was 0.18 and the “Log2 (PYR/DMSO)” value [21] was -0.03. The “Log2 (PYR/DMSO), LYRM2” value [22] was 0.27, the “Log2 (PYR/DMSO)” value [23] was 0.14 and the “Log2 (PYR/DMSO)” value [24] was -0.04. The “Log2 (PYR/DMSO)” value [25] was -0.04, the “Log2 (PYR/DMSO)” value [26] was -0.05 and the “Log2 (PYR/DMSO)” value [27] was -0.04. For the same compound, the “Log2 (PYR/DMSO)” value [28] was 0.17, the “Log2 (PYR/DMSO)” value [29] was 0.17 and the “Log2 (PYR/DMSO)” value [30] was 0.14.
